Data reported in patent US5872015A, “Molecular diversity screening method” (Board of Trustees of the University of Illinois, priority 1996, dated 1999).

How the values were obtained:
[1] = biological target: T1, Calf intestinal adenosine deaminase (Bos taurus, UniProt P56658)
T1 sequence (P56658 1-363): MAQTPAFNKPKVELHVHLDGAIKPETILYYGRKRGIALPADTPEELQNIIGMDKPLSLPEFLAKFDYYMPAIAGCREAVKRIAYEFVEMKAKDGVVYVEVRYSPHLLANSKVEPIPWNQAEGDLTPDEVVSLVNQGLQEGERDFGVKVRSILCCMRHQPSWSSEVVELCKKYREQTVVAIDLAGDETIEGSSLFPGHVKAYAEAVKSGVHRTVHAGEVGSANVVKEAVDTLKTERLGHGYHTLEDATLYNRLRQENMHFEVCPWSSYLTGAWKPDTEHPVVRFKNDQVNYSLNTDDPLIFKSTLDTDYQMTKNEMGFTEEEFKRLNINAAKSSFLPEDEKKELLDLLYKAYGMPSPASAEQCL
Experimental: Calf intestinal adenosine deaminase (or another type of adenosine deaminase) is loaded into the molecular diversity screening device (equipped with a 10,000 molecular weight cutoff membrane) to a concentration of approximately 10 nM. A library of 20 adenosine analogs was prepared including the natural substrate for adenosine deaminase, adenosine (See list of compounds in Table 1).
Next, the adenosine analog library was mixed with adenosine deaminase (in a 1:1 molar ratio) in 33 mM ammonium acetate buffer at pH 7.4, and an aliquot was injected into the molecular diversity screening device to achieve a concentration of adenosine deaminase of approximately 10 nM. After flushing the binding chamber with water at 100 μL/min for 12 min, to wash out library compounds with low affinity for adenosine deaminase, methanol/water (50:50) was pumped through the chamber at 50 μL/min. The latter procedure should perturb binding of any remaining compounds bound to the adenosine deaminase and release them into the detector.

[2] = biological target: T1, Calf intestinal adenosine deaminase; assay: Selective identification of adenosine deaminase binders from a synthetic library of EHNA-type analogs (ultrafiltration, electrospray MS); type: binding; settings: for detected eluting from the device in the recovery phase: scan mode, positive ion electrospray MS, ADA 7.35 μM, approximately 10 nM each analog, pH 7.4, methanol/water 90:10; for presence of ion in the recovery phase in the presence of ADA / binding to ADA in the presence of a five-fold excess of EHNA: single ion monitoring mode; for presence of ion in the recovery phase in the presence of ADA: with ADA (FIG. 11B); for binding to ADA in the presence of a five-fold excess of EHNA: with ADA and five-fold excess of authentic EHNA (FIG. 11C)
[3] = system: adenosine deaminase (ADA); settings: EHNA 2×10^-8 M continuous influx; ADA 10^-7 M; 33 mM ammonium acetate; release by 25 μL MeOH, three cases
Experimental: At about 10 min, 25 μL of MeOH is injected into the binding chamber resulting in an increase in EHNA--the first peak on the left. This signal is due to an enhanced sensitivity of the detector to EHNA in the presence of MeOH and/or due to release of non-specifically bound EHNA from the device and its parts. At about 40 min, the receptor ADA, in 33 mM ammonium acetate buffer, is introduced into the binding chamber until a receptor concentration of 10^-7 M is reached. […] At about 90 min, 25 μL of MeOH is again introduced to perturb binding and release of EHNA is observed. […] This process is repeated a third time at about 180 min. […] At about 230 min the ADA is removed from the binding chamber by opening the binding chamber wash port 9.

[4] = biological target: adenosine deaminase (ADA); settings: cited from earlier work
bovine serum albumin = assay: Extraction of pentachlorophenol by bovine serum albumin in the molecular diversity screening device (pulsed ultrafiltration, electrospray MS); type: binding
Experimental: The receptor concentration is chosen to be about 100 times the smallest dissociation constant being sought. […] The binding chamber is then washed with binding buffer (i.e., 100 Mm ammonium acetate at Ph 7.4) at 100 μL/min to wash out any low molecular weight impurities. The compound, in this case pentachlorophenol (equimolar or less with respect to the serum albumin in the binding chamber) is then injected into the binding chamber, and elution of pentachlorophenol is monitored using an appropriate detector such as UV absorbance or an electrospray mass spectrometer. An example of the extraction of pentachlorophenol from a binding buffer by bovine serum albumin is shown in FIG. 7 using electrospray mass spectrometric detection.
When pentachlorophenol is injected into the binding chamber without serum albumin present, an abundant peak is detected by the mass spectrometer as pentachlorophenol flows through the device unimpeded (FIG. 7, solid curve). […] Retention of pentachlorophenol in the binding chamber corresponds to tight binding to serum albumin under the predicted concentrations.

serum albumin = settings: albumin-pentachlorophenol; read-out: dissociation constant; cited from earlier work

| SMILES | detected eluting from the device in the recovery phase [2] | presence of ion in the recovery phase in the presence of ADA [2] | binding to ADA in the presence of a five-fold excess of EHNA [2] | further results |
| --- | --- | --- | --- | --- |
| CCCCCC[C@H]([C@H](C)O)n1cnc2c(N)ncnc21 (relative stereo) [EHNA, erythro-9-(2-hydroxy-3-nonyl)adenine] | detected | present | – | detected eluting from the binding chamber on release with methanol/water (50:50) ([1]; ADA approximately 10 nM, 33 mM ammonium acetate pH 7.4, EHNA at 20-fold lower concentration than other compounds): detected; affinity for adenosine deaminase within the library ([1]; library of 20 adenosine analogs): highest affinity; binding to and release from ADA [3]: released after being bound to the ADA; Kd ([4]; read-out: dissociation constant, North, et al., 1979): 7 nM; Ki ([4]; read-out: inhibitor dissociation constant, potent inhibitor of adenosine deaminase, no source given): 2 nM |
| CC(O)C(Cc1ccccc1)n1cnc2c(N)ncnc21 (centres unmarked) [benzylic] | not detected | did not appear | – | – |
| CC(C)CC(C(C)O)n1cnc2c(N)ncnc21 (centres unmarked) [isobutyl] | not detected | did not appear | – | – |
| CCCCCCCCC(C(C)O)n1cnc2c(N)ncnc21 (centres unmarked) [nC7 H15] | detected | present | suppressed | – |
| CCCCCCCCCCC(C(C)O)n1cnc2c(N)ncnc21 (centres unmarked) [nC10 H21] | detected | present | suppressed | – |
| Oc1c(Cl)c(Cl)c(Cl)c(Cl)c1Cl [pentachlorophenol] | – | – | – | extraction from the solution by the albumin receptor molecule (bovine serum albumin; 100 mM ammonium acetate pH 7.4, unstirred 100 μL chamber, albumin approximately 1 μM): almost completely extracted; pentachlorophenol detected by the mass spectrometer after injection with albumin loaded (bovine serum albumin; bovine serum albumin in chamber (FIG. 7, dashed curve)): only a trace; Kd (serum albumin): ~10 nM |
